US9464064B2, “HCV helicase inhibitors and methods of use thereof” (University of Kansas, priority 2011, dated 2016)
Read-outs that look alike come from different tables or passages of the source.

What was measured:
NS3h_2a = target: T1, NS3h_2a (Hepatitis C virus genotype 2a, UniProt Q99IB8); test: RNA helicase assay (three-stranded RNA substrate); assay type: biochemical, hepatitis C virus genotype 2a(JFH1)
T1 construct: truncated C-terminally His-tagged NS3 proteins lacking the N-terminal protease, called NS3h; His-tag (C); made in house
T1 sequence (Q99IB8 1196-1661): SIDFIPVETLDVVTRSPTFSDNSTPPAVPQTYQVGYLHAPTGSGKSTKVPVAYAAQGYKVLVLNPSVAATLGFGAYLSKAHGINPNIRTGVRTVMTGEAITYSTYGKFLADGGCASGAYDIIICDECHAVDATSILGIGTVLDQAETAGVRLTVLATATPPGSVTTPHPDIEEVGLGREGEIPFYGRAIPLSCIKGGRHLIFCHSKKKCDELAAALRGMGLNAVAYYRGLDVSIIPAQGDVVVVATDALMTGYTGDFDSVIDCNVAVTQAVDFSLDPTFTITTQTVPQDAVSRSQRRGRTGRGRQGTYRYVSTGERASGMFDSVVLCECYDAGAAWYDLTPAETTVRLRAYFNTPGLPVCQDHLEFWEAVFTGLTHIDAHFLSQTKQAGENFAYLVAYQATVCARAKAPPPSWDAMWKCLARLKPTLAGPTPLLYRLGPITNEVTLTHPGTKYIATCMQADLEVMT
Protocol: To act as antivirals in cells, it is also important for an HCV helicase inhibitor to inhibit the activity of the NS3h on RNA. […] As with protein specificity, no differences were uncovered regarding substrate specificity for any of the compounds tested. In other words, none of the compounds preferred to act either on DNA or RNA substrates.

NS3h_1b = target: T2, NS3h_1b (Hepatitis C virus genotype 1b, UniProt Q9WMX2); test: ATPase assay without RNA; assay type: biochemical, hepatitis C virus genotype 1b(con1)
T2 construct: truncated C-terminally His-tagged NS3 proteins lacking the N-terminal protease, called NS3h; His-tag (C); made in house
T2 sequence (Q9WMX2 1192-1657): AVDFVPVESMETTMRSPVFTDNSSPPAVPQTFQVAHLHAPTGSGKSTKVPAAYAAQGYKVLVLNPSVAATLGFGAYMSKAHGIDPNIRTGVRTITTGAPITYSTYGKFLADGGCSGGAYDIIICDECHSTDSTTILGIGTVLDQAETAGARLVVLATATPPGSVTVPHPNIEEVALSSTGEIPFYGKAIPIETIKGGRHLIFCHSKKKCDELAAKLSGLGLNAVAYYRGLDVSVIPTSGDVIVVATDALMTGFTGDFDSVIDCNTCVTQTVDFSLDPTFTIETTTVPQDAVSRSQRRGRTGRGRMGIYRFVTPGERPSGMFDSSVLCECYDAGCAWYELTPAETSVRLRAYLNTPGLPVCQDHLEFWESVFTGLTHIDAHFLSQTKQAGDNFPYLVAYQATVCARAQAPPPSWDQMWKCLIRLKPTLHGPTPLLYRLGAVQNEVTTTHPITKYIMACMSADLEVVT
Protocol: A modified “malachite green” assay (Lanzetta, et al. (1979) Anal. Biochem. 100:95-97) was used to measure ATP hydrolysis. Fifty μL reactions contained 25 mM MOPS pH 6.5, 5 mM MgCl2, 2 mM ATP, 5 μg/mL BSA, 0.01% (v/v) TWEEN 20, 0.05 mM DTT, and poly(U) RNA (Saint Louis, Mo.) as indicated. Reactions were initiated by adding NS3h_1b(con1). Reactions were incubated for 15 minutes at 37° C. then stopped by mixing 40 μL of the reaction into 200 μL of the malachite green reagent (3 volumes 0.045% (w/v) malachite green, 1 volume 4.2% ammonium molybdate in 4N HCl, 0.05 volume of 20% TWEEN 20). […] Absorbance at 630 nm was proportional to the concentration of phosphate produced; free phosphate produced was measured against a standard curve.
A simple explanation for the ability of some of the primuline derivatives to inhibit helicase and protease with similar potency would be that the compounds acted by simply aggregating or denaturing the enzyme. To test for irreversible inhibition, NS3h was incubated with 100 μM of each compound, diluted and then assayed for its ability to unwind DNA under standard conditions. […] In a second test for a simple aggregation mechanism, each compound was tested for its ability to inhibit NS3-catalyzed ATP hydrolysis. ATP hydrolysis fuels the unwinding reaction and NS3 hydrolyzes ATP both in the presence and absence of DNA or RNA; nucleic acid stimulates NS3 catalyzed ATP hydrolysis about 50-fold. […] To test this hypothesis, ATPase assays were performed in the presence of various concentrations of each primuline derivative, under conditions similar to those used to monitor effects on DNA and RNA unwinding. Far more of each compound was needed to inhibit NS3-catalyzed ATP hydrolysis than was needed to inhibit the helicase activity, or, in some cases, NS3 protease activity (Table 11).

[1] = Aqueous solubility (direct UV kinetic); assay type: physicochemical; settings: kinetic from dmso stock
Protocol: Solubility analysis was performed using a direct UV kinetic solubility method in a 96-well format. All liquid dispense and transfer steps were performed with the FREEDOM EVO automated liquid handler (Tecan, US). Solubility measurements were performed in an aqueous buffer solution (PRISMA HT, pION Inc.) at pH 5.0, 6.2 and 7.4, in duplicate. Solubility measurements were also performed in 1×PBS pH 7.4, and in MOPS buffer pH 6.5. Samples were incubated at room temperature for a minimum of […] to achieve equilibrium, then filtered to remove any precipitate formed. The concentration of the compounds was measured by UV absorbance (250-498 nm) using the […] M200 (Tecan, US) and compared to the spectra of the precipitation-free reference solutions. Spectroscopically pure 1-Propanol (Sigma) was used as a cosolvent to suppress precipitation in the reference solutions. The solubility of each compound was determined using pSOL Evolution Plus software v3.2 (pION Inc) and was expressed as the concentration (μg/mL) of a solute in a saturated solution. Diclofenac Na (highly soluble) and Dipyridamole (poorly to moderately soluble) were used as standards. Standards and test compound stocks were made in 100% DMSO. […]

MBHA DNA substrate = test: Fluorescent intercalation displacement (FID) assay, ethidium bromide; assay type: binding; settings: FID; mean ± SD; read-out: DNA Binding (Ethidium Bromide) EC50
Protocol: Fluorescent intercalation displacement (FID) assays (Boger, et al. (2001) J. Am. Chem. Soc. 123:5878-5891) were used to measure the ability of a compound to bind the MBHA substrate. The concentration at which half the ethidium bromide is displaced (EC50) was determined using the different conditions as above to more closely mimic the conditions of a standard helicase assay. Each 100 μL reaction contained 25 mM MOPS pH 6.5, 0.16 μM MBHA DNA substrate (lacking Cy5 and IBQ-RQ modifications), 2 μM ethidium bromide, and various concentrations of test compound. Fluorescence of ethidium bromide was monitored using excitation and emission wavelengths of 545 and 595 nm, respectively, on a Cary Eclipse fluorescence spectrophotometer in white 96-well plates. The amount of ethidium bromide-DNA complex fluorescence was used to estimate the ability of compounds to bind DNA, and therefore displace the fluorescent intercalator (ethidium bromide).
In Equation 4, Fc is the fluorescence in the presence of the compound, F(−) is the average DMSO-only negative controls, and F(+) is the average positive controls (100 μM berenil). EC50 values were from a normalized dose-response curve.
These twelve hits were then subjected to a counterscreen designed to independently identify DNA binding compounds using a modified fluorescent intercalator displacement (FID) assay (Boger, et al. (2001) supra). The FID assay used ethidium bromide to judge a compound's ability to bind DNA and was based on the assumption that a DNA binding compound would displace a fluorescent DNA intercalating agent, leading to an observable decrease in observed fluorescence. Compounds were tested at 1.5 μM in the presence of the 25 base pair substrate used in the helicase assays.

[2] = aqueous with cosolvent or surfactant or cyclodextrin, mock assay matrix (MOPS, TWEEN 20, 5% DMSO) at pH 6.5, read-out: solubility

Row | Compound | IC50 (NS3h_2a) [µM] | IC50 (NS3h_1b) [µM] | solubility [1, 2] [µM] | also measured
1 | Cc1ccc2nc(-c3ccc4nc(-c5ccc(NC(=O)c6ccc(N)cc6)cc5)sc4c3)sc2c1S(=O)(=O)O [Compound 6, 2′-(4-(4-aminobenzamido)phenyl)-6-methyl-[2,6′-bibenzo[d]thiazole]-7-sulfonic acid] | 7 ± 3 | 194 ± 30 | – | –
2 | Cc1ccc2nc(-c3ccc4nc(-c5ccc(NC(=O)c6ccc(F)cc6)cc5)sc4c3)sc2c1S(=O)(=O)O.N [Compound 7, 2′-(4-(4-fluorobenzamido)phenyl)-6-methyl-[2, bibenzo[d]thiazole]-7-sulfonic acid] | 4 ± 2 | 67 ± 30 | 129 | –
3 | Cc1ccc2nc(-c3ccc4nc(-c5ccc(NC(=O)c6ccc(C(F)(F)F)cc6)cc5)sc4c3)sc2c1S(=O)(=O)O [Compound 12, 6-methyl-2′-(4-(4-(trifluoromethyl)benzamido)phenyl)-[2,6′-bibenzo[d]thiazole]-7-sulfonic acid] | 3 ± 1 | 24 ± 5 | – | –
4 | Cc1ccc2nc(-c3ccc4nc(-c5ccc(NC(=O)c6ccc(C(C)(C)C)cc6)cc5)sc4c3)sc2c1S(=O)(=O)O [Compound 13, 2′-(4-(4-(tert-butyl)benzamido)phenyl)-6-methyl-[2,6′-bibenzo[d]thiazole]-7-sulfonic acid] | 9 ± 9 | 150 ± 21 | – | –
5 | Cc1ccc2nc(-c3ccc4nc(-c5ccc(NC(=O)c6ccc(Br)cc6)cc5)sc4c3)sc2c1S(=O)(=O)O [Compound 15, 2′-(4-(4-bromobenzamido)phenyl)-6-methyl-[2,6′-bibenzo[d]thiazole]-7-sulfonic acid] | 4 ± 2 | 50 ± 4 | – | –
6 | Cc1ccc2nc(-c3ccc4nc(-c5ccc(NC(=O)c6cccc(Cl)c6)cc5)sc4c3)sc2c1S(=O)(=O)O [Compound 17, 2′-(4-(3-chlorobenzamido)phenyl)-6-methyl-[2,6′-bibenzo[d]thiazole]-7-sulfonic acid] | 6 ± 3.1 | 74 ± 7 | 29.2 | solubility ([1]; 1×PBS, pH 7.4, aqueous buffer, read-out: Aqueous Solubility, PBS): 0.12 µg/mL; solubility ([1]; PRISMA HT aqueous buffer, aqueous buffer, pH 5.0, read-out: Aqueous Solubility, Prisma HT buffer): 36.7 µg/mL; solubility ([1]; PRISMA HT aqueous buffer, pH 6.2, aqueous buffer, read-out: Aqueous Solubility, Prisma HT buffer): > 60 µg/mL; solubility ([1]; PRISMA HT aqueous buffer, pH 7.4, aqueous buffer, read-out: Aqueous Solubility, Prisma HT buffer): > 60 µg/mL; solubility ([1]; mock assay matrix with TWEEN 20, 5% DMSO, pH 6.5, aqueous with cosolvent or surfactant or cyclodextrin, read-out: Aqueous Solubility, Assay Matrix): 17.8 µg/mL
7 | Cc1ccc2nc(-c3ccc4nc(-c5ccc(NC(=O)c6ccc(Cl)c(Cl)c6)cc5)sc4c3)sc2c1S(=O)(=O)O [Compound 18, 2′-(4-(3,4-dichlorobenzamido)phenyl)-6-methyl-[2,6′-bibenzo[d]thiazole]-7-sulfonic acid] | 4 ± 2 | 44 ± 12 | 2.6 | –
8 | Cc1ccc2nc(-c3ccc4nc(-c5ccc(NC(=O)c6cc(C(F)(F)F)cc(C(F)(F)F)c6)cc5)sc4c3)sc2c1S(=O)(=O)O [Compound 24, 2′-(4-(3,5-bis(trifluoromethyl)benzamido)phenyl)-6-methyl-[2,6′-bibenzo[d]thiazole]-7-sulfonic acid] | 14 ± 13 | 141 ± 28 | 180 | –
9 | Cc1ccc2nc(-c3ccc4nc(-c5ccc(NC(=O)c6cc(C(F)(F)F)ccc6F)cc5)sc4c3)sc2c1S(=O)(=O)O [Compound 25, 2′-(4-(2-fluoro-5-(trifluoromethyl)benzamido)phenyl)-6-methyl-[2,6′-bibenzo[d]thiazole]-7-sulfonic acid] | 10 ± 3 | 61 ± 13 | – | –
10 | Cc1ccc2nc(-c3ccc4nc(-c5ccc(NC(=O)c6cccnc6)cc5)sc4c3)sc2c1S(=O)(=O)O [Compound 31, 6-methyl-2′-(4-(nicotinamido)phenyl)-[2,6′-bibenzo[d]thiazole]-7-sulfonic acid] | – | – | – | solubility ([1]; aqueous buffer, MOPS buffer (25 mM MOPS, 1.25 mM MgCl2, 2% DMSO) at pH 6.5, read-out: solubility): > 100 µM
11 | Cc1ccc2nc(-c3ccc4nc(-c5ccc(NC(=O)c6ccc7ccccc7c6)cc5)sc4c3)sc2c1S(=O)(=O)O [Compound 33, 2′-(4-(2-naphthamido)phenyl)-6-methyl-[2,6′-bibenzo[d]thiazole]-7-sulfonic acid] | 3 ± 2 | 30 ± 6 | 3.7 | –
12 | Cc1ccc2nc(-c3ccc4nc(-c5ccc(NC(=O)c6ccc7nc(-c8ccc(N)cc8)sc7c6)cc5)sc4c3)sc2c1S(=O)(=O)O [Compound 35, 2′-(4-(2-(4-aminophenyl)benzo[d]thiazole-6-carboxamido)phenyl)-6-methyl-[2,6′-bibenzo[d]thiazole]-7-sulfonic acid] | 6 ± 5.4 | > 200 | – | –
13 | Cc1ccc2nc(-c3ccc4nc(-c5ccc(N)cc5)sc4c3)sc2c1S(=O)(=O)O [Compound P2a, 2′-(4-aminophenyl)-6-methyl-[2,6′-bibenzo[d]thiazole]-7-sulfonic acid] | 32 ± 14 | > 200 | – | EC50 (MBHA DNA substrate): > 100 µM
14 | Cc1ccc2nc(-c3ccc4nc(-c5ccc6nc(-c7ccc(N)cc7)sc6c5)sc4c3)sc2c1S(=O)(=O)O [Compound P3, 2″-(4-aminophenyl)-6-methyl-[2,6′:2′,6″-terbenzo[d]thiazole]-7-sulfonic acid] | – | – | – | EC50 (MBHA DNA substrate): 55 ± 20 µM
15 | Cc1ccc2nc(-c3ccc4nc(-c5ccc6nc(-c7ccc8nc(-c9ccc(N)cc9)sc8c7)sc6c5)sc4c3)sc2c1S(=O)(=O)O [Compound P4, 2′″-(4-aminophenyl)-6-methyl-[2,6′:2″,6′″-quaterbenzo[d]thiazole]-7-sulfonic acid] | 3 ± 1.3 | 43 ± 10 | – | EC50 (MBHA DNA substrate): 15 ± 3 µM
